The text below walks through data of PMC12298351, “Novel 3,19-(N-Phenyl-3-(4-fluorophenyl)-pyrazole) Acetal of Andrographolide Promotes Cell Cycle Arrest and Apoptosis in MDA-MB-231 Breast Cancer Cells” (Pharmaceuticals, 2025).

Values joined by “and” are separate entries in the source; they are usually repeats but may differ in a detail not shown here. Identical values can stand only once.

One data set has as its system UACC-257. The note with it: UACC-257, Melanoma; for CC50: read-out: 50% lethal concentration (LC50).
The subject of data set [1] is MDA-MB-231 breast cancer cells. Description: MTT cell proliferation assay. It is filed as cell-based. The note with it: MDA-MB-231, 0-200 µM, 72 h.
Protocol: (§1) These MDA-MB-231 breast cancer cells were treated with 1f at different concentrations, i.e., 0, 1.56, 3.125, 6.25, 12.5, 25, 50, 100, and 200 µM, for 72 h.
(§2) MDA-MB-231 breast cancer cells and MCF-10A normal breast epithelial cells (from ATCC, Manassas, VA, USA) were seeded into 96-well plates at a density of 4 × 10^3 cells per well. After overnight incubation at 37 °C, the cells were treated with varying concentrations of compound 1f (0, 1.56, 3.125, 6.25, 12.5, 25, 50, 100, and 200 µM) and incubated for an additional 72 h. Untreated cells served as the negative control. Subsequently, 10 µL of the MTT solution (5 mg/mL) was added to each well, and the plates were incubated for 3 h to assess cell viability. The medium was then discarded, and the absorbance was measured at 570 nm using a microplate reader (Promega GloMax, Madison, WI, USA).
The subject of a further data set is MDA-MB-231 cells. Briefly: Cell cycle assay, PI staining, flow cytometry. The class given is cell-based. Particulars: MDA-MB-231, 24 h. How it is done:
Cell proliferation is well associated with the regulation of cell cycle progression. Therefore, the effect of 1f on cell cycle distribution was evaluated by flow cytometry in PI-stained cells.
Cell cycle distribution was assessed by propidium iodide (PI) staining followed by flow cytometric analysis. Cells (3 × 10^5/well) were plated in 6-well plates and allowed to adhere for 24 h. To synchronize the cell cycle, the medium was replaced with serum-free medium for 8 h. After synchronization, cells were treated with various concentrations of compound 1f for 24 h. Following treatment, cells were harvested with 1X trypsin, washed with cold PBS, and fixed in 70% ethanol at 4 °C for 2 h. Fixed cells were washed twice with PBS, then incubated overnight in a staining solution containing RNase A (1 µL, 10 mg/mL) and PI (5 µL, 1 mg/mL) in 1X PBS. Cell cycle distribution was subsequently determined using flow cytometry.

Data set [2] has as its system MDA-MB-231 breast cancer cell line. Briefly: Annexin V-FITC/PI apoptotic assay (FACS). It is filed as cell-based. Particulars: MDA-MB-231, 3.33 µM. How it is done:
Apoptosis is considered a preventive mechanism against cancer dissemination, as it plays a crucial role in eliminating excessively proliferating and mutated cancer cells from the body. Following the administration of cytotoxic drugs as treatment for various types of cancer, apoptosis is a significant contributor to cellular death. […] We proceeded to investigate whether compound 1f triggers apoptosis or not. The MDA-MB-231 breast cancer cell line was treated with 1f for 24, 48, and 72 h. A quantitative evaluation of apoptotic activity was performed using FACS.
To evaluate the pro-apoptotic effect of compound 1f, Annexin V-FITC/PI dual staining was conducted. Cells were seeded into 12-well plates at a density of 1 × 10^5 cells per well and treated with the compound for 24, 48, and 72 h. Post-treatment, the cells were collected using 1X trypsin, including both floating and adherent cells, and centrifuged at 4000 rpm for 5 min. The resulting pellet was resuspended in 100 µL of 1X Annexin V binding buffer and stained with Annexin V-FITC, followed by a 15 min incubation in the dark at 4 °C. Cells were then washed, resuspended in fresh binding buffer, and stained with propidium iodide before immediate analysis via flow cytometry.

Data set [3] relates to MCF-10a (normal breast cells).
Protocol: as §1, §2

In the data set on UACC-257, `C=C1CCC2C3(C)COC(c4cn(-c5ccccc5)nc4-c4cccc(Br)c4)OC3CCC2(C)C1CC=C1C(=O)OCC1O` (stereo not shown) [1e] gave a GI50 of 1.77 µM and a Total growth inhibition (TGI) of 3.45 µM.
In the data set on UACC-257, `C=C1CCC2C3(C)COC(c4cn(-c5ccccc5)nc4-c4ccc(F)cc4)OC3CCC2(C)C1CC=C1C(=O)OCC1O` (stereo not shown) [1f, 3,19-(N-Phenyl-3-(4-fluorophenyl)-pyrazole) Acetal of Andrographolide] gave a GI50 of 1.65 µM and a Total growth inhibition (TGI) of 3.18 µM. Further, in data set [1], the “anti-proliferation activity (MTT)” value was “strong dose-dependent anti-proliferation activity”. In the data set with MDA-MB-231 cells (3.33 µM), the “G1 (%)” value was 77.36 ± 0.69%; the “G2 (%)” value is recorded as 6.94 ± 0.28%; the “S (%)” value is 14.2% and 14.4 ± 0.95%. For the same molecule, in the data set on MDA-MB-231 cells (5.00 µM), the “G1 (%)” value came to 62.83 ± 1.2%; the “G2 (%)” value was determined as 4.87 ± 0.26%; the “S (%)” value was 25.2% and 26.5 ± 0.96%. For the same molecule, in the data set with MDA-MB-231 cells (6.66 µM), the “G1 (%)” value is 59.6% and 57.83 ± 1.2%; the “G2 (%)” value was 4.01% and 3.82 ± 0.20%; the “S (%)” value worked out at 21.9 ± 1.03%. Moreover, in data set [2] (24 h), the “apoptotic cells (total)” value is “remained almost the same”. Moreover, in data set [2] (48 h), the “apoptotic cells (total)” value worked out at 44%, the “early apoptosis (Q3)” value turned out to be 10.3% and the “late apoptosis (Q2)” value worked out at 33.0%. Also, in data set [2] (72 h), the “apoptotic cells (total)” value was determined as 55%, the “early apoptosis (Q3)” value worked out at 14.7% and the “late apoptosis (Q2)” value worked out at 40.6%. In data set [3], this molecule showed a CC50 of 50 µM.
As to `C=C1CCC2C3(C)COC(c4cn(-c5ccccc5)nc4-c4cccc([N+](=O)[O-])c4)OC3CCC2(C)C1CC=C1C(=O)OCC1O` (stereo not shown) [1b], in the data set with UACC-257, it took 1.8 µM to inhibit growth by half (GI50), the Total growth inhibition (TGI) turned out to be 3.68 µM and the CC50 turned out to be 7.53 µM.
Turning to `C=C1CCC2C3(C)COC(c4cn(-c5ccccc5)nc4-c4ccc(Br)cc4)OC3CCC2(C)C1CC=C1C(=O)OCC1O` (stereo not shown) [1h], in the data set on UACC-257, growth was halved (GI50) at 1.7 µM and the Total growth inhibition (TGI) was 3.35 µM.
For `C=C1CCC2C3(C)COC(c4cn(-c5ccccc5)nc4-c4ccc(Cl)cc4)OC3CCC2(C)C1CC=C1C(=O)OCC1O` (stereo not shown) [1g], in that order: 1.8 µM and 3.63 µM.
Regarding `C=C1CCC2C3(C)COC(c4cn(-c5ccccc5)nc4-c4ccccc4)OC3CCC2(C)C1CC=C1C(=O)OCC1O` (stereo not shown) [1a], in the data set with UACC-257, the 50% growth inhibitory concentration (GI50) turned out to be 1.9 µM, the Total growth inhibition (TGI) is 3.8 µM and the CC50 turned out to be 7.62 µM.
In the data set with UACC-257, `C=C1CCC2C3(C)COC(c4cn(-c5ccccc5)nc4-c4ccc(C)cc4)OC3CCC2(C)C1CC=C1C(=O)OCC1O` (stereo not shown) [1i] yielded a GI50 of 1.74 µM and a Total growth inhibition (TGI) of 3.47 µM.
For `C=C1CCC2C3(C)COC(c4cn(-c5ccccc5)nc4-c4cccc(F)c4)OC3CCC2(C)C1CC=C1C(=O)OCC1O` (stereo not shown) [1c], in that order: 1.93 µM and 3.87 µM.
Take `C=C1CCC2C3(C)COC(c4cn(-c5ccccc5)nc4-c4ccc(OC)cc4)OC3CCC2(C)C1CC=C1C(=O)OCC1O` (stereo not shown) [1j]: in the data set on UACC-257, the GI50 turned out to be 1.64 µM and the Total growth inhibition (TGI) turned out to be 3.28 µM.
In the data set with UACC-257, `C=C1CCC2C3(C)COC(c4cn(-c5ccccc5)nc4-c4cccc(Cl)c4)OC3CCC2(C)C1CC=C1C(=O)OCC1O` (stereo not shown) [1d] registered a concentration for 50% growth inhibition (GI50) of 1.77 µM and a Total growth inhibition (TGI) of 3.57 µM.
